In US8722901B2, “Carboxy oxazole or thiazole compounds as DGAT-1 inhibitors useful for the treatment of obesity” (Piramal Enterprises Limited, priority 2009, dated 2014):

Legend:
[1] = biological target: T1, hDGAT-1 (Homo sapiens, UniProt O75907); test: In-vitro DGAT-1 assay (14C oleoyl CoA, microsomes from Sf9 cells); type: biochemical; conditions: 1 μM compound; hDGAT-1 containing microsomes from Sf9 cells
T1 construct: host or cells: Sf9 insect cells (baculovirus); microsomal fraction
T1 sequence (O75907 1-488): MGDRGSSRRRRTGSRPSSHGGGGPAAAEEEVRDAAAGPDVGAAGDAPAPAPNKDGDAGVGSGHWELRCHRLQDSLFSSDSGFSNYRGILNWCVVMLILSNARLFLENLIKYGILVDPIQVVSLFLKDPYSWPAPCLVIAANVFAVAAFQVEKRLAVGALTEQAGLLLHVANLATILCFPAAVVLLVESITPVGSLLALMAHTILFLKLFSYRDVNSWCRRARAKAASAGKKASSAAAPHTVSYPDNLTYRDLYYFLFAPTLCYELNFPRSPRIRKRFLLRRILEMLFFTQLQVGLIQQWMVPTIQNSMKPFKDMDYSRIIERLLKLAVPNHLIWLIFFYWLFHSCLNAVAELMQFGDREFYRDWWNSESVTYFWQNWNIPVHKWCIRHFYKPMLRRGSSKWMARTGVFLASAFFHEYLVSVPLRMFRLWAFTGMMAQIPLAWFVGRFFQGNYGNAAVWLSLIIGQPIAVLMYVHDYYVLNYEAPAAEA
Method: In-Vitro Protocol for DGAT-1 Assay
Sf9 Culture and Treatment
Sf9 cells were grown in T25 flasks containing Graces's Insect media (Invitrogen, US) with 10% FBS (Hyclone, US) with antibiotic (100 units/mL penicillin, 100 μg/mL streptomycin sulphate, 0.25 μg/mL amphotericin B as Fungizone) grown in a 27° C. incubator.
hDGAT-10RF expression clone (RZPDo839C09146 in pDEST vector) was obtained from RZPD, Germany. hDGAT-1 bacmid DNA was obtained by transformation of the hDGAT expression clone into DH10Bac E. coli competent cells. Approximately 1 μg of hDGAT-1 bacmid DNA was infected into Sf9 cells with Cellfectin (Invitrogen, US) reagent. Following infection, Sf9 cells were incubated at 27° C. for 30 minutes. Five hours after infection, the media was replaced with growth media containing antibiotic (100 units/mL penicillin, 100 μg/mL streptomycin sulphate, 0.25 μg/mL amphotericin B as Fungizone) and incubated at 27° C. for 72 hours. The supernatant containing the virus was centrifuged at 1500 g for 5 minutes, passed through 0.22 μm filter, and subsequently stored at 4° C. The virus was further amplified three more times by re-infection of Sf9 cells and the viral titer was determined by plaque assay.
Preparation of DGAT-1 Microsomes from Sf9 Cells
Sf9 cells were seeded in spinner flasks on day 0 at a cell density of 1×10^6 and infected on day 1 with hDGAT-1 baculovirus at a multiplicity of infection (MOI) of 5 and a cell density of 2×10^6. On day 3 (or 66-72 hours), cells were harvested and centrifuged at 2500 g for 10 minutes. Pellet was resuspended in lysis buffer (100 mM sucrose, 50 mM KCl, 40 mM KH2PO4, 30 mM EDTA, pH 7.2) and passed through 21-gauge needle approximately 10 times. […] The supernatant was subjected to centrifugation at 35,000 rpm in a Beckman Ti-45 rotor at 4° C. for 1 hour. The resultant pellet containing the microsomes were resuspended overnight in 1 mL of lysis buffer and total protein concentration was estimated using Bradford Reagent (Sigma, US). Microsomes were aliquoted and stored at −80° C.
Measurement of DGAT-1 Activity
Frozen aliquots of hDGAT-1 containing microsomes were thawed (5-10 mg/mL total protein) on ice and diluted to a working stock of 1 mg/mL with DGAT Assay Buffer (DAB).
The assay was performed in duplicates in a reaction volume of 100 μL. […] Procedure:
The reaction was started by the addition of […] of 1 mg/mL of microsomes (iv) to the mixture and incubated at 37° C. for 10 minutes. […] The mixture was vortexed and the triglycerides formed were extracted into the organic heptane phase.

[2] = tested on: Swiss mice; test: Fat tolerance test (ftt) in mice; type: in vivo; conditions: 3 mg/kg p.o., olive oil load 10 ml/kg p.o., reduction in AUC0-4h, vehicle group as 100%
Method: Study Protocol for Screening of Compounds for Fat Tolerance Test (ftt) in Mice
Swiss mice of age 4-5 weeks and body weight between 25-30 g were selected for study. After overnight fasting, animals were divided into three groups based on plasma triglyceride level with same mean and variation Animals were administered with either vehicle (1% Tween 80 in 0.5% carboxy methylcellulose) or with compounds of the present invention (3 mg/kg, p.o.). Compounds of the present invention were prepared as suspension in 0.5% carboxy methylcellulose (CMC) with 1% Tween 80. 30 minutes after the treatment, olive oil load (10 ml/kg, p.o.) was given. Blood samples were collected at 1, 2, 3 and 4 h after the fat (olive oil) load. Plasma was separated and triglyceride level was measured using commercially available kits (Diasys, Germany). Percentage reduction in area under curve (AUC0-4h) of the test compound was calculated by taking AUC0-4h of the vehicle group as 100%.

Row | Molecule | % inhibition of hDGAT-1 at 1 μM [1] | % Reduction (Plasma triglyceride) [2] | inhibition at 1 µM [1] [%]
1 | 2-(5-(4-(3-(3,4-dimethylphenyl)ureido)phenyl)oxazole-2-carboxamido)-3-methylbutanoic acid [Example 14] | ++ (>50% Inhibition ≦100) | ++ (>50% Reduction ≦100) | 
2 | CC(C)C(NC(=O)c1ncc(-c2ccc(NC(=O)Nc3ccccc3Cl)cc2)o1)C(=O)O (stereo not shown) [Example 4, 2-(5-(4-(3-(2-Chlorophenyl)ureido)phenyl)oxazole-2-carboxamido)-3-methylbutanoic acid] |  | + (>0% Reduction ≦50) | 50 to 100
3 | CC(C)C(NC(=O)c1ncc(-c2ccc(NC(=O)Nc3cccc(C(F)(F)F)c3)cc2)s1)C(=O)O (stereo not shown) [Example 10, 3-methyl-2-(5-(4-(3-(3-(trifluoromethyl)phenyl)ureido)phenyl)thiazole-2-carboxamido)butanoic acid] |  | ++ (>50% Reduction ≦100) | 
4 | CC(C)C(NC(=O)c1ncc(-c2ccc(NC(=O)Nc3ccccc3Cl)cc2)s1)C(=O)O (stereo not shown) [Example 12, 2-(5-(4-(3-(2-Chlorophenyl)ureido)phenyl)thiazole-2-carboxamido)-3-methylbutanoic acid] |  | ++ (>50% Reduction ≦100) | 
5 | CC(C)C(NC(=O)c1ncc(-c2ccc(NC(=O)Nc3ccccc3Oc3ccccc3)cc2)s1)C(=O)O (stereo not shown) [Example 16, 3-methyl-2-(5-(4-(3-(2-phenoxyphenyl)ureido)phenyl)thiazole-2-carboxamido)butanoic acid] |  | ++ (>50% Reduction ≦100) | 
6 | CC(C)C(NC(=O)c1ncc(-c2ccc(NC(=O)Nc3ccc(Cl)cc3Oc3ccccc3)cc2)s1)C(=O)O (stereo not shown) [Example 18, 2-(5-(4-(3-(4-chloro-2-phenoxyphenyl)ureido)phenyl)thiazole-2-carboxamido)-3-methylbutanoic acid] |  | ++ (>50% Reduction ≦100) | 
7 | CC(C)C(NC(=O)c1ncc(-c2ccc(Nc3nc4ccc(F)cc4s3)cc2)s1)C(=O)O (stereo not shown) [Example 20, 2-(5-(4-(6-fluorobenzo[d]thiazol-2-ylamino)phenyl)thiazole-2-carboxamido)-3-methylbutanoic acid] |  | ++ (>50% Reduction ≦100) | 
8 | CC(C)C(NC(=O)c1ncc(-c2ccc(NC(=O)c3ccc(C(C)(C)C)cc3)cc2)s1)C(=O)O (stereo not shown) [Example 22, 2-(5-(4-(4-tert-butylbenzamido)phenyl)thiazole-2-carboxamido)-3-methylbutanoic acid] |  | ++ (>50% Reduction ≦100) | 
